The text below walks through data of patent publication US8680290B2, “Isoxazoline derivatives and their use as herbicides” (Syngenta Limited, priority 2004, dated 2014).

What all share (type): in vivo
Assay [1] relates to Monocotyledonous and dicotyledonous test plants. Put plainly: Example B2 herbicidal action, application pre-emergence, 96-cell seed trays (Table B2b). Conditions: 1000 g/ha. On the procedure: Monocotyledonous and dicotyledonous test plants were sown in sterilised standard soil in seed trays each having 96 cells. After one day (pre-emergence) or after 8 to 9 days cultivation (post-emergence) under controlled conditions in a climatic chamber (cultivation at 17/23° C.; 13 hours light; 50-60% humidity; after application at 19/24° C.), the plants were treated with an aqueous spray solution of 1000 mg/l of the active ingredient used (rate of application: […]; incl. 10% DMSO as solvent). The plants were grown on in the climatic chamber until the test was evaluated (10 total damage to plant, 0=no damage to plant) after 9 or 13 days.

Assay [2] has the same test system. The assay can be described thus: Example B1 herbicidal action, application post-emergence (Table B1a). Conditions: 250 g/ha, evaluated after 3 weeks, scale 0-10. In outline:
(§1)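 Compounds sprayed as aqueous solution from acetone/Emulsogen EL/NMP/dipropylene glycol monomethyl ether/X-77 formulation onto soil right after sowing (pre-emergence) or onto 8–9-day plants (post-emergence); greenhouse-grown. Damage scored 0 (none) to 10 (total) after 4 weeks pre- or 3 weeks post-emergence.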

Assay [3] shares this test system. The assay can be described thus: Example B1 herbicidal action, application pre-emergence (Table B1b). Conditions: 250 g/ha, evaluated after 4 weeks. In outline: as §1

Each structure is given as a SMILES string.

For the compound `CC1(C)CC(S(=O)(=O)C2(c3c(F)cccc3F)CC2[N+](=O)[O-])=NO1` (stereo not drawn) [1.48], in assay [1], the “herbicidal action (damage rating 0-10), Agrostis” value is given as 10; the “herbicidal action (damage rating 0-10), Digitaria” value (“herbicidal action … Digitaria” below) is recorded as 9; the “herbicidal action (damage rating 0-10), Poa” value came out at 10; the “herbicidal action (damage rating 0-10), Setaria” value (from here on “herbicidal action … Setaria”) is recorded as 8.

For `COCC(=O)OC(COC)=C(c1c(F)cccc1F)S(=O)(=O)C1=NOC(C)(C)C1` [1.100], in assay [1], the “herbicidal action (damage rating 0-10), Agrostis” value turned out to be 5; the “herbicidal action … Digitaria” value is reported as 7; the “herbicidal action (damage rating 0-10), Poa” value was found to be 9; the “herbicidal action … Setaria” value was 3.

With `Cn1nc(C(F)(F)F)c(C(F)(F)S(=O)(=O)C2=NOC(C)(C)C2)c1OC(F)F` [2.11], in assay [2], the “herbicidal damage rating, Abutilon” value stood at 7; the “herbicidal damage rating, Amaranthus” value was determined as 5; the “herbicidal damage rating, Digitaria” value amounted to 7; the “herbicidal damage rating, Panicum” value is 7. For the same compound, in assay [2], the “herbicidal damage rating, Setaria” value worked out at 7 and the “herbicidal damage rating, Sida” value is listed as 7. For the same compound, in assay [3], the “herbicidal action (damage rating 0-10), Amaranthus” value (“herbicidal action … Amaranthus” for short) was found to be 10; the “herbicidal action … Digitaria” value came to 10; the “herbicidal action (damage rating 0-10), Panicum” value (from here on “herbicidal action … Panicum”) was 10; the “herbicidal action … Setaria” value came out at 10. For the same compound, the “herbicidal action (damage rating 0-10), Sida” value (shortened to “herbicidal action … Sida”) in assay [3] was 9.

Take `Cn1nc(C(F)(F)F)c(C(F)(Cl)S(=O)(=O)C2=NOC(C)(C)C2)c1OCC(F)(F)F` (stereo not drawn) [2.12]: in assay [2], the “herbicidal damage rating, Abutilon” value amounted to 6; the “herbicidal damage rating, Amaranthus” value turned out to be 0; the “herbicidal damage rating, Digitaria” value was 6; the “herbicidal damage rating, Panicum” value turned out to be 7. In assay [2], the “herbicidal damage rating, Setaria” value stood at 7 and the “herbicidal damage rating, Sida” value was found to be 6. In assay [3], the “herbicidal action … Amaranthus” value stood at 10; the “herbicidal action … Digitaria” value is given as 10; the “herbicidal action … Panicum” value amounted to 10; the “herbicidal action … Setaria” value was 10. For the same compound, the “herbicidal action … Sida” value in assay [3] was 8.

Consider `Cn1nc(C(F)(F)F)c(C(Cl)(Cl)S(=O)(=O)C2=NOC(C)(C)C2)c1OCC(F)(F)F` [2.13], for which, in assay [2], the “herbicidal damage rating, Abutilon” value turned out to be 6; the “herbicidal damage rating, Amaranthus” value was 7; the “herbicidal damage rating, Digitaria” value came to 5; the “herbicidal damage rating, Panicum” value came to 7. Besides, in assay [2], the “herbicidal damage rating, Setaria” value came out at 8 and the “herbicidal damage rating, Sida” value amounted to 7. For the same compound, in assay [3], the “herbicidal action … Amaranthus” value was found to be 10; the “herbicidal action … Digitaria” value came out at 10; the “herbicidal action … Panicum” value was found to be 10; the “herbicidal action … Setaria” value worked out at 10. In assay [3], the “herbicidal action … Sida” value is 7.

Consider `Cn1nc(C(F)(F)F)c(C(F)(Cl)S(=O)(=O)C2=NOC(C)(C)C2)c1OC(F)F` (stereo not drawn) [2.14], for which, in assay [2], the “herbicidal damage rating, Abutilon” value is 7; the “herbicidal damage rating, Amaranthus” value is given as 8; the “herbicidal damage rating, Digitaria” value was determined as 7; the “herbicidal damage rating, Panicum” value is recorded as 7. Besides, in assay [2], the “herbicidal damage rating, Setaria” value came out at 4 and the “herbicidal damage rating, Sida” value stood at 7. Further, in assay [3], the “herbicidal action … Amaranthus” value is 10; the “herbicidal action … Digitaria” value stood at 10; the “herbicidal action … Panicum” value is on record as 10; the “herbicidal action … Setaria” value is reported as 10. For the same compound, the “herbicidal action … Sida” value in assay [3] is on record as 9.

With `Cn1nc(C(F)(F)F)c(C(Cl)(Cl)S(=O)(=O)C2=NOC(C)(C)C2)c1OC(F)F` [2.15], in assay [2], the “herbicidal damage rating, Abutilon” value is 4; the “herbicidal damage rating, Amaranthus” value is on record as 0; the “herbicidal damage rating, Digitaria” value is listed as 6; the “herbicidal damage rating, Panicum” value is recorded as 2. Also, in assay [2], the “herbicidal damage rating, Setaria” value is listed as 4 and the “herbicidal damage rating, Sida” value is given as 4. For the same compound, in assay [3], the “herbicidal action … Amaranthus” value worked out at 10; the “herbicidal action … Digitaria” value is 10; the “herbicidal action … Panicum” value turned out to be 10; the “herbicidal action … Setaria” value worked out at 10. Besides, the “herbicidal action … Sida” value in assay [3] came out at 8.

`Cn1nc(C(F)(F)F)c(C(Cl)S(=O)(=O)C2=NOC(C)(C)C2)c1OC(F)F` (stereo not drawn) [2.16]: in assay [2], the “herbicidal damage rating, Abutilon” value worked out at 7; the “herbicidal damage rating, Amaranthus” value is listed as 8; the “herbicidal damage rating, Digitaria” value is listed as 4; the “herbicidal damage rating, Panicum” value was 0. Further, in assay [2], the “herbicidal damage rating, Setaria” value amounted to 8 and the “herbicidal damage rating, Sida” value is recorded as 7. Besides, in assay [3], the “herbicidal action … Amaranthus” value is given as 10; the “herbicidal action … Digitaria” value stood at 10; the “herbicidal action … Panicum” value is listed as 10; the “herbicidal action … Setaria” value came to 10. The “herbicidal action … Sida” value in assay [3] was determined as 7.

Consider `CC1(C)CC(S(=O)(=O)C(Cl)c2cccnc2Cl)=NO1` (stereo not drawn) [8.01], for which, in assay [2], the “herbicidal damage rating, Abutilon” value is on record as 3; the “herbicidal damage rating, Amaranthus” value amounted to 0; the “herbicidal damage rating, Digitaria” value was 0; the “herbicidal damage rating, Panicum” value is 3. In addition, in assay [2], the “herbicidal damage rating, Setaria” value was determined as 0 and the “herbicidal damage rating, Sida” value is 3. In addition, in assay [3], the “herbicidal action … Amaranthus” value worked out at 5; the “herbicidal action … Digitaria” value came out at 8; the “herbicidal action … Panicum” value was 8; the “herbicidal action … Setaria” value came out at 5. For the same compound, the “herbicidal action … Sida” value in assay [3] was 0.

`CC1(C)CC(S(=O)(=O)C(F)c2cccnc2Cl)=NO1` (stereo not drawn) [8.02]: in assay [2], the “herbicidal damage rating, Abutilon” value is recorded as 2; the “herbicidal damage rating, Amaranthus” value is recorded as 0; the “herbicidal damage rating, Digitaria” value was 6; the “herbicidal damage rating, Panicum” value is 3. In addition, in assay [2], the “herbicidal damage rating, Setaria” value came to 3 and the “herbicidal damage rating, Sida” value was 3. Also, in assay [3], the “herbicidal action … Amaranthus” value was 7; the “herbicidal action … Digitaria” value is reported as 9; the “herbicidal action … Panicum” value is on record as 10; the “herbicidal action … Setaria” value is 8. For the same compound, in assay [3], the “herbicidal action … Sida” value turned out to be 0.

For the compound `CC1(C)CC(S(=O)(=O)C(F)(Cl)c2cccnc2Cl)=NO1` (stereo not drawn) [8.03], in assay [2], the “herbicidal damage rating, Abutilon” value came to 4; the “herbicidal damage rating, Amaranthus” value is 0; the “herbicidal damage rating, Digitaria” value is reported as 7; the “herbicidal damage rating, Panicum” value is on record as 6. In assay [2], the “herbicidal damage rating, Setaria” value came out at 4 and the “herbicidal damage rating, Sida” value is listed as 0. For the same compound, in assay [3], the “herbicidal action … Amaranthus” value turned out to be 8; the “herbicidal action … Digitaria” value is on record as 10; the “herbicidal action … Panicum” value is listed as 10; the “herbicidal action … Setaria” value stood at 8. Moreover, the “herbicidal action … Sida” value in assay [3] stood at 6.

On to `CC1(C)CC(S(=O)(=O)C(F)(F)c2cccnc2Cl)=NO1` [8.04], for which, in assay [2], the “herbicidal damage rating, Abutilon” value came to 3; the “herbicidal damage rating, Panicum” value is 3; the “herbicidal damage rating, Setaria” value turned out to be 2; the “herbicidal damage rating, Sida” value came to 0. For the same compound, in assay [3], the “herbicidal action … Amaranthus” value was 10; the “herbicidal action … Digitaria” value was determined as 10; the “herbicidal action … Panicum” value is on record as 10; the “herbicidal action … Setaria” value is listed as 10. The “herbicidal action … Sida” value in assay [3] stood at 3.

With `CC1(C)CC(S(=O)(=O)C(F)(Br)c2c(F)cccc2F)=NO1` (stereo not drawn) [Compound No. 1.63, 3-[bromo-(2,6-difluorophenyl)-fluoro-methanesulfonyl]-5,5-dimethyl-4,5-dihydroisoxazole], in assay [2], the “herbicidal damage rating, Abutilon” value stood at 4; the “herbicidal damage rating, Amaranthus” value came to 3; the “herbicidal damage rating, Digitaria” value is on record as 7; the “herbicidal damage rating, Panicum” value was 7. For the same compound, in assay [2], the “herbicidal damage rating, Setaria” value is recorded as 7 and the “herbicidal damage rating, Sida” value is reported as 4. Also, in assay [3], the “herbicidal action … Amaranthus” value stood at 10; the “herbicidal action … Digitaria” value was 10; the “herbicidal action … Panicum” value came out at 10; the “herbicidal action … Setaria” value is given as 10. The “herbicidal action … Sida” value in assay [3] was found to be 8.

For `CC1(C)CC(S(=O)(=O)C(c2c(F)cccc2F)C(F)(F)F)=NO1` (stereo not drawn) [Compound No. 1.113, 3-[1-(2,6-difluoro-phenyl)-2,2,2-trifluoro-ethanesulfonyl]-5,5-dimethyl-4,5-dihydroisoxazole], in assay [2], the “herbicidal damage rating, Abutilon” value stood at 2; the “herbicidal damage rating, Amaranthus” value was determined as 0; the “herbicidal damage rating, Digitaria” value is reported as 8; the “herbicidal damage rating, Panicum” value is 3. In addition, in assay [2], the “herbicidal damage rating, Setaria” value stood at 7 and the “herbicidal damage rating, Sida” value is 4. Besides, in assay [3], the “herbicidal action … Amaranthus” value is given as 8; the “herbicidal action … Digitaria” value was determined as 9; the “herbicidal action … Panicum” value came out at 10; the “herbicidal action … Setaria” value was 10. For the same compound, in assay [3], the “herbicidal action … Sida” value was 0.
